Test results published in paper PMC9243770, “Structural and Biophysical Characterization of Purified Recombinant Arabidopsis thaliana's Alternative Oxidase 1A (rAtAOX1A): Interaction With Inhibitor(s) and Activator” (Frontiers in Plant Science, 2022).

Experiments:
[1] = molecular target: T1, Alternative oxidase 1A (rAtAOX1A) (Arabidopsis thaliana, UniProt Q39219); test: SPR (Biacore, CM5 chip, […] Langmuir kinetic fit); also CD and inhibition of cell respiration; type: binding
T1 construct: gene AOX1A; mature protein, N-terminal His6-tag, expressed in E. coli BL21(DE3)
T1 sequence (Q39219 63-354): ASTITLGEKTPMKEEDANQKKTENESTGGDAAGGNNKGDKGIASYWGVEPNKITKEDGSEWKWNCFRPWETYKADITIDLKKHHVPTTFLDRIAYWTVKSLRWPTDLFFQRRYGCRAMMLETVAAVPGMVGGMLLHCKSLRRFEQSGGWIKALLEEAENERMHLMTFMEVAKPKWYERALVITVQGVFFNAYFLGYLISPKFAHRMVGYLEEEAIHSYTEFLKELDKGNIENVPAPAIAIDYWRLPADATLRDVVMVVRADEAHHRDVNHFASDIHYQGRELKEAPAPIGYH

[2] = molecular target: T1, Alternative oxidase 1A (rAtAOX1A); test: oxygen uptake of purified enzyme with […] duroquinol (Clark-type electrode); type: biochemical

oxygen uptake of purified enzyme with 600 μM duroquinol (Clark-type electrode) [2]	SMILES	Kd [1] [nM]
	CCCOC(=O)c1cc(O)c(O)c(O)c1 [n-PG, n-propyl gallate]	0.491
3.86 μmol O2 min^−1 mg^−1 protein	Cc1c(C)c(O)c(C)c(C)c1O [DQH2, duroquinol]	
	O=C(NO)c1ccccc1O [SHAM, salicylhydroxamic acid]	3.08
